Data taken from patent US9221796B2, “Selective NR2B antagonists” (BRISTOL-MYERS SQUIBB COMPANY, priority 2014, dated 2015).

Biological target: NR2B-subtype NMDA receptors (Rattus norvegicus (Rat), UniProt P35439+Q00960)
Test: Radioligand binding assay (3H Ro 25-6981 competition, forebrain membranes)
Conditions: 3H Ro 25-6981 (4 nM), read-out: NR2B Binding Ki
Outline: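 Rat forebrain membranes competed against [3H]Ro 25-6981 for 1 hr at room temperature, then filtered onto PEI-treated GF/B plates and counted by scintillation. CPM converted to % inhibition, concentration-response curves fitted, Ki derived from at least two experiments.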

NR2B-subtype NMDA receptors, sequence (Q00960 27-1482, other chains not shown): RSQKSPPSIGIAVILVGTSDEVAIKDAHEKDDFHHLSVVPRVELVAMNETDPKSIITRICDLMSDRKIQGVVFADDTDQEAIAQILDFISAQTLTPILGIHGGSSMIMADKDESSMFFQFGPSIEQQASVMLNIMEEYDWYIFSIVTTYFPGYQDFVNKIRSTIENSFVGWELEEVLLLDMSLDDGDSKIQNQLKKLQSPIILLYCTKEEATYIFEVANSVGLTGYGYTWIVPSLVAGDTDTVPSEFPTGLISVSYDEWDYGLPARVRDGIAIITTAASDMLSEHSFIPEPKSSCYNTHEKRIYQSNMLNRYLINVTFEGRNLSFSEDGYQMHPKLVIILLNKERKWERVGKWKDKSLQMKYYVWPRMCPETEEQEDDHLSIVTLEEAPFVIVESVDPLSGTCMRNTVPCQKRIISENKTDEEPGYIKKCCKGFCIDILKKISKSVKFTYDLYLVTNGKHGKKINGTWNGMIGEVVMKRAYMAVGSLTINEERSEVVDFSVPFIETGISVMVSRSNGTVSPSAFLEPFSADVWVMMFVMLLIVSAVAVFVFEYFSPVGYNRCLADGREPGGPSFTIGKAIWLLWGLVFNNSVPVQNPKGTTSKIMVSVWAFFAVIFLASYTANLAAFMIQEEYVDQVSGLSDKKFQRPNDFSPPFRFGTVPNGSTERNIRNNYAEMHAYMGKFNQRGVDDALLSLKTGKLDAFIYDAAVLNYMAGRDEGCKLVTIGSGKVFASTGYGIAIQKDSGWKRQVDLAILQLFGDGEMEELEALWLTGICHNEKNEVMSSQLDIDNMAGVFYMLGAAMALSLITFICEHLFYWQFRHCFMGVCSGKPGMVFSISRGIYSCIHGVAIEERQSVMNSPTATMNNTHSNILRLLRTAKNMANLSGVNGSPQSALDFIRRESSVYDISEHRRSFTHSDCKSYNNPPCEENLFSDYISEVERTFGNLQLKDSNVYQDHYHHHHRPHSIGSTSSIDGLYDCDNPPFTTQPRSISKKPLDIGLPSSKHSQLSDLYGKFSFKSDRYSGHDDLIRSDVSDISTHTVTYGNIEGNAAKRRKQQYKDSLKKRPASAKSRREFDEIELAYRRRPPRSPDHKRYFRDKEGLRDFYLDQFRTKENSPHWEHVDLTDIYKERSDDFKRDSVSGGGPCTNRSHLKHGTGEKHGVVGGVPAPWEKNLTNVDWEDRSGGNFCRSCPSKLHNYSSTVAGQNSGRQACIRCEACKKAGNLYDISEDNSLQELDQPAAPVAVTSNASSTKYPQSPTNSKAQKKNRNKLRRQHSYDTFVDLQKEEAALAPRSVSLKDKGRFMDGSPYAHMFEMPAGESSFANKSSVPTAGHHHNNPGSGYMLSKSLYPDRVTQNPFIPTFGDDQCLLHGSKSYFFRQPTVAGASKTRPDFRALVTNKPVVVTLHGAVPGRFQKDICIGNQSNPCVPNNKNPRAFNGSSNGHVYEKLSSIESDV

Row | Compound | Ki
1 | O=C1[C@@H](N2CC[C@H](c3ccc(O)cc3)[C@@H](F)C2)CCN1Cc1ccc(Cl)cc1 [Example 80, (S)-1-(4-Chlorobenzyl)-3-((3R,4R)-3-fluoro-4-(4-hydroxyphenyl)piperidin-1-yl)pyrrolidin-2-one] | 560 nM
2 | O=C1[C@@H](N2CC[C@H](c3ccc(O)cc3)[C@@H](F)C2)CCN1Cc1ccc(Cl)c(F)c1 [Example 82, (S)-1-(4-Chloro-3-fluorobenzyl)-3-((3R,4R)-3-fluoro-4-(4-hydroxyphenyl)piperidin-1-yl)pyrrolidin-2-one] | 860 nM
3 | O=C1[C@H](N2CC[C@H](c3ccc(O)cc3)[C@@H](F)C2)CCN1Cc1ccc(Cl)c(F)c1 [Example 83, (R)-1-(4-Chloro-3-fluorobenzyl)-3-((3R,4R)-3-fluoro-4-(4-hydroxyphenyl)piperidin-1-yl)pyrrolidin-2-one] | 5 nM
4 | O=C1C(N2CC[C@H](c3ccc(O)cc3)[C@@H](F)C2)CCN1Cc1ccc(Cl)c(Cl)c1 (stereo partly drawn) [Example 86, 1-(3,4-Dichlorobenzyl)-3-((3R,4R)-3-fluoro-4-(4-hydroxyphenyl)-piperidin-1-yl)pyrrolidin-2-one] | 78 nM
5 | O=C1C(N2CC[C@H](c3ccc(O)cc3)[C@@H](F)C2)CCN1Cc1ccc(F)c(Cl)c1 (stereo partly drawn) [Example 89, 1-(3-Chloro-4-fluorobenzyl)-3-((3R,4R)-3-fluoro-4-(4-hydroxyphenyl)piperidin-1-yl)pyrrolidin-2-one] | 200 nM
6 | O=C1C(N2CCC(c3ccc(O)cc3)C(F)(F)C2)CCN1c1ccc(OC(F)F)c(Cl)c1 (stereo not drawn) [Example 90, 1-(3-Chloro-4-(difluoromethoxy)phenyl)-3-(3,3-difluoro-4-(4-hydroxyphenyl)piperidin-1-yl)pyrrolidin-2-one] | 77 nM
7 | Cc1ccccc1CN1CCC(N2CCC(c3ccc(O)cc3)C(F)(F)C2)C1=O (stereo not drawn) [Example 92, 3-(3,3-Difluoro-4-(4-hydroxyphenyl)piperidin-1-yl)-1-(2-methylbenzyl)pyrrolidin-2-one] | 59 nM
8 | Cc1cccc(CN2CCC(N3CCC(c4ccc(O)cc4)C(F)(F)C3)C2=O)c1 (stereo not drawn) [Example 93, 3-(3,3-Difluoro-4-(4-hydroxyphenyl)piperidin-1-yl)-1-(3-methylbenzyl)pyrrolidin-2-one] | 67 nM
9 | O=C1C(N2CCC(c3ccc(O)cc3)C(F)(F)C2)CCN1Cc1ccc(OC(F)F)cc1 (stereo not drawn) [Example 94, 3-(3,3-Difluoro-4-(4-hydroxyphenyl)piperidin-1-yl)-1-(4-(difluoromethoxy)benzyl)-pyrrolidin-2-one] | 390 nM
10 | O=C1[C@@H](N2CCC(c3ccc(O)cc3)C(F)(F)C2)CCN1Cc1ccc(Cl)c(F)c1 (stereo partly drawn) [Example 96, P-1, (3S)-1-(4-Chloro-3-fluorobenzyl)-3-(3,3-difluoro-4-(4-hydroxyphenyl)piperidin-1-yl)pyrrolidin-2-one] | 490 nM
11 | O=C1C(N2CCC(c3ccc(O)cc3)C(F)(F)C2)CCN1Cc1ccc(F)c(F)c1 (stereo not drawn) [Example 97, 3-(3,3-Difluoro-4-(4-hydroxyphenyl)piperidin-1-yl)-1-(3,4-difluorobenzyl)pyrrolidin-2-one] | 45 nM
12 | O=C1C(N2CCC(c3ccc(O)cc3)C(F)(F)C2)CCN1Cc1ccc(Cl)c(Cl)c1 (stereo not drawn) [Example 98, 1-(3,4-Dichlorobenzyl)-3-(3,3-difluoro-4-(4-hydroxyphenyl)piperidin-1-yl)pyrrolidin-2-one] | 230 nM
13 | O=C1[C@@H](N2CCC(c3ccc(O)cc3)C(F)(F)C2)CCN1c1ccc(OC(F)F)c(Cl)c1 (stereo partly drawn) [Example 101, P-1, (3S)-1-(3-Chloro-4-(difluoromethoxy)phenyl)-3-(3,3-difluoro-4-(4-hydroxyphenyl)-piperidin-1-yl)pyrrolidin-2-one] | 13 nM
14 | O=C1[C@@H](N2CCC(c3ccc(O)cc3)C(F)(F)C2)CCN1Cc1ccccc1 (stereo partly drawn) [Example 102, P-1, (3S)-1-Benzyl-3-(3,3-difluoro-4-(4-hydroxyphenyl)piperidin-1-yl)pyrrolidin-2-one] | 740 nM
15 | O=C1[C@H](N2CCC(c3ccc(O)cc3)C(F)(F)C2)CCN1Cc1ccccc1 (stereo partly drawn) [Example 102, P-2, (3R)-1-Benzyl-3-(3,3-difluoro-4-(4-hydroxyphenyl)piperidin-1-yl)pyrrolidin-2-one] | 30 nM
16 | O=C1[C@H](N2CCC(c3ccc(O)cc3)C(F)(F)C2)CCN1Cc1ccc(Cl)cc1 (stereo partly drawn) [Example 106, P-2, (3R)-1-(4-Chlorobenzyl)-3-(3,3-difluoro-4-(4-hydroxyphenyl)piperidin-1-yl)pyrrolidin-2-one] | 4.6 nM
17 | O=C1C(N2CCC(c3ccc(O)cc3)C(F)(F)C2)CCN1Cc1ccc(Cl)c(Cl)c1 (stereo not drawn) [Example 109, 1-(3,4-Dichlorobenzyl)-3-(3,3-difluoro-4-(4-hydroxyphenyl)piperidin-1-yl)pyrrolidin-2-one] | 290 nM
18 | O=C1C(N2CCC(c3ccc(O)cc3)C(F)(F)C2)CCN1Cc1ccc(C(F)(F)F)cc1 (stereo not drawn) [Example 110, 3-(3,3-Difluoro-4-(4-hydroxyphenyl)piperidin-1-yl)-1-(4-(trifluoromethyl)benzyl)-pyrrolidin-2-one] | 36 nM
19 | O=C1C(N2CCN(c3ccc(O)cc3)CC2)CCN1Cc1ccc(F)cc1 (stereo not drawn) [Example 113, 1-(4-fluorobenzyl)-3-(4-(4-hydroxyphenyl)piperazin-1-yl)pyrrolidin-2-one] | 33 nM

Now from value to molecule:

Row | Ki | Compound
20 | 190 nM | O=C1C(N2CC[C@H](c3ccc(O)cc3)[C@@H](F)C2)CCN1Cc1ccc(OC(F)F)cc1 (stereo partly drawn) [Example 78, 1-(4-(Difluoromethoxy)benzyl)-3-((3R,4R)-3-fluoro-4-(4-hydroxyphenyl)piperidin-1-yl)pyrrolidin-2-one]
21 | 40 nM | O=C1C(N2CC[C@H](c3ccc(O)cc3)[C@@H](F)C2)CCN1c1ccc(OC(F)F)c(Cl)c1 (stereo partly drawn) [Example 79, 1-(3-Chloro-4-(difluoromethoxy)phenyl)-3-((3R,4R)-3-fluoro-4-(4-hydroxyphenyl)-piperidin-1-yl)pyrrolidin-2-one]
22 | 3.8 nM | O=C1[C@H](N2CC[C@H](c3ccc(O)cc3)[C@@H](F)C2)CCN1Cc1ccc(Cl)cc1 [Example 81, (R)-1-(4-Chlorobenzyl)-3-((3R,4R)-3-fluoro-4-(4-hydroxyphenyl)piperidin-1-yl)pyrrolidin-2-one]
23 | 950 nM | C[C@@H](c1ccccc1)N1CCC(N2CC[C@H](c3ccc(O)cc3)[C@@H](F)C2)C1=O (stereo partly drawn) [Example 84, 3-((3R,4R)-3-Fluoro-4-(4-hydroxyphenyl)piperidin-1-yl)-1-((S)-1-phenylethyl)pyrrolidin-2-one]
24 | 23 nM | O=C1C(N2CC[C@H](c3ccc(O)cc3)[C@@H](F)C2)CCN1Cc1ccc(F)c(F)c1 (stereo partly drawn) [Example 85, 1-(3,4-Difluorobenzyl)-3-((3R,4R)-3-fluoro-4-(4-hydroxyphenyl)-piperidin-1-yl)pyrrolidin-2-one]
25 | 540 nM | O=C1[C@@H](N2CC[C@H](c3ccc(O)cc3)[C@@H](F)C2)CCN1Cc1ccc(C(F)(F)F)cc1 [Example 87, (S)-3-((3R,4R)-3-Fluoro-4-(4-hydroxyphenyl)piperidin-1-yl)-1-(4-(trifluoromethyl)benzyl)-pyrrolidin-2-one]
26 | 5.3 nM | O=C1[C@H](N2CC[C@H](c3ccc(O)cc3)[C@@H](F)C2)CCN1Cc1ccc(C(F)(F)F)cc1 [Example 88, (R)-3-((3R,4R)-3-Fluoro-4-(4-hydroxyphenyl)piperidin-1-yl)-1-(4-(trifluoromethyl)benzyl)-pyrrolidin-2-one]
27 | 54 nM | O=C1[C@@H](N2CCC(c3ccc(O)cc3)C(F)(F)C2)CCN1Cc1ccc(Cl)cc1 (stereo partly drawn) [Example 95, P-1, (3S)-1-(4-Chlorobenzyl)-3-(3,3-difluoro-4-(4-hydroxyphenyl)piperidin-1-yl)pyrrolidin-2-one]
28 | 12 nM | O=C1[C@H](N2CCC(c3ccc(O)cc3)C(F)(F)C2)CCN1Cc1ccc(Cl)cc1 (stereo partly drawn) [Example 95, P-2, (3R)-1-(4-Chlorobenzyl)-3-(3,3-difluoro-4-(4-hydroxyphenyl)piperidin-1-yl)pyrrolidin-2-one]
29 | 18 nM | O=C1[C@H](N2CCC(c3ccc(O)cc3)C(F)(F)C2)CCN1Cc1ccc(Cl)c(F)c1 (stereo partly drawn) [Example 96, P-2, (3R)-1-(4-Chloro-3-fluorobenzyl)-3-(3,3-difluoro-4-(4-hydroxyphenyl)piperidin-1-yl)pyrrolidin-2-one]
30 | 570 nM | O=C1C(N2CCC(c3ccc(O)cc3)C(F)(F)C2)CCN1Cc1ccc(F)c(Cl)c1 (stereo not drawn) [Example 100, 1-(3-Chloro-4-fluorobenzyl)-3-(3,3-difluoro-4-(4-hydroxyphenyl)piperidin-1-yl)pyrrolidin-2-one]
31 | 11 nM | O=C1[C@H](N2CCC(c3ccc(O)cc3)C(F)(F)C2)CCN1c1ccc(OC(F)F)c(Cl)c1 (stereo partly drawn) [Example 101, P-2, (3R)-1-(3-Chloro-4-(difluoromethoxy)phenyl)-3-(3,3-difluoro-4-(4-hydroxyphenyl)-piperidin-1-yl)pyrrolidin-2-one]
32 | 81 nM | Cc1ccccc1CN1CCC(N2CCC(c3ccc(O)cc3)C(F)(F)C2)C1=O (stereo not drawn) [Example 103, 3-(3,3-Difluoro-4-(4-hydroxyphenyl)piperidin-1-yl)-1-(2-methylbenzyl)pyrrolidin-2-one]
33 | 130 nM | Cc1cccc(CN2CCC(N3CCC(c4ccc(O)cc4)C(F)(F)C3)C2=O)c1 (stereo not drawn) [Example 104, 3-(3,3-Difluoro-4-(4-hydroxyphenyl)piperidin-1-yl)-1-(3-methylbenzyl)pyrrolidin-2-one]
34 | 180 nM | O=C1C(N2CCC(c3ccc(O)cc3)C(F)(F)C2)CCN1Cc1ccc(OC(F)F)cc1 (stereo not drawn) [Example 105, 3-(3,3-Difluoro-4-(4-hydroxyphenyl)piperidin-1-yl)-1-(4-(difluoromethoxy)benzyl)-pyrrolidin-2-one]
35 | 990 nM | O=C1[C@@H](N2CCC(c3ccc(O)cc3)C(F)(F)C2)CCN1Cc1ccc(Cl)cc1 (stereo partly drawn) [Example 106, P-1, (3S)-1-(4-Chlorobenzyl)-3-(3,3-difluoro-4-(4-hydroxyphenyl)piperidin-1-yl)pyrrolidin-2-one]
36 | 590 nM | O=C1C(N2CCC(c3ccc(O)cc3)C(F)(F)C2)CCN1Cc1ccc(F)c(Cl)c1 (stereo not drawn) [Example 111, 1-(3-Chloro-4-fluorobenzyl)-3-(3,3-difluoro-4-(4-hydroxyphenyl)piperidin-1-yl)pyrrolidin-2-one]
